From patent publication US20250213603A1, “PHARMACEUTICAL COMPOSITION FOR TREATING CANCER” (SAGA UNIVERSITY, priority 2021, published 2025)

Assays:
[1] = test system: KBM5-STI; assay: Cell proliferation inhibition, modified MTT assay (Cell Counting Kit-8); format: cell-based; details: incubation for 72 hours, average±SD of 3 independent experiments
Description: (§1) The proliferation inhibitory action in leukemia cell lines was evaluated using a modified dimethyl-thiazole-diphenyl-tetrazolium (MTT) assay as follows.
(§2) The hepatocyte line and leukemia cell lines (K562, BV173, Ba/F3 p190, Ba/F3 p210, MYL-R, K562-IMR, and KBM5-STI) were used in this example. The FA-HP-β-CyD synthesized in Example 1 was used.
(§3) The cell viability was evaluated using the trypan blue dye exclusion method. Cell proliferation was evaluated using a Cell Counting Kit-8 (Dojindo, Japan), which is an MTT assay. 2×10^4 of each cell was seeded with 100 μL RPMI1640 medium (Sigma-Aldrich, USA) per well to a flatbottom 96-well plate (Greiner Labortechnik, Hamburg, Germany), and incubation for 72 hours was carried out with exposure to HP-β-CyD and FA-HP-β-CyD at different concentrations (0 mM (control: CT), 0.05 mM, 0.1 mM, 0.25 mM, 0.5 mM, and 1 mM).

[2] = test system: hepatocyte; assay: as above; format: cell-based; details: hepatocyte line, incubation for 72 hours, average±SD of 3 independent experiments
Description: as §1, §2, §3

folic acid-appended hydroxypropyl-β-cyclodextrin [FA-HP-β-CyD]
IC50 [1]: 0.8 ± 0.12 mM
IC50 [2]: 20.1 ± 4.5 mM
